Experimental data: patent US20260028326A1, “COMPOUND BASED ON ISOINDOLINE-SUBSTITUTED GLUTARIMIDE BACKBONE AND USE THEREOF” (GLUETACS THERAPEUTICS (SHANGHAI) CO., LTD., priority 2022, published 2026)

How the values were obtained:
[1] = molecular target: human Cereblon WT GST-tagged protein (Homo sapiens (Human), UniProt Q96SW2); experiment: CRBN-binding affinity, HTRF (CEREBLON BINDING kit)
Summary of the method: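 HTRF competition readout: compounds compete with a thalidomide-Re conjugate for GST-tagged wild-type human CRBN detected via Eu-labelled anti-GST antibody. Inhibition rate derived relative to protein-free blank wells.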

MM.1S cells = experiment: Tumor cell proliferation IC50 (CCK-8), MM.1S; details: Homo sapiens, MM1.S, 72 h, read-out: IC50 for inhibiting the proliferation of tumor cells, MM.1S;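 further: viability of cultured cells read by CCK-8 reagent after compound exposure, growth inhibition curves fitted to derive IC50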
Method: (§1) The tumor cells used herein were cultured in a cell culture medium listed in table A at 37° C. in an incubator with 5% CO2.
(§2) After the cells were treated with the compounds of the present disclosure for a period of time, the cell viability detection reagent was added to the culture medium for cell viability assessment according to the instructions provided with the CCK-8 kit. […] The growth inhibition of the compounds of the present disclosure on cells was plotted by Prism Graphpad software, and the IC50 values of the compounds of the present disclosure were calculated therefrom.

Mino cells = experiment: Tumor cell proliferation IC50 (CCK-8), Mino; details: Homo sapiens, 72 h, read-out: IC50 for inhibiting the proliferation of tumor cells, Mino;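 further: cell viability assessed with CCK-8 reagent after compound exposure, IC50 derived from plotted growth inhibition curves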
Method: as §1, §2

IKZF1 protein = IKZF1 protein (Homo sapiens (Human), UniProt Q13422+Q96SW2); experiment: Western-blot assay of substrate protein degradation in hPBMC, IKZF1; assay type: cell-based; details: for residual substrate protein level, IKZF1: hPBMC cells, compound 500 nM, 24 hours, Western blot
IKZF1 protein, sequence (Q13422 whole entry): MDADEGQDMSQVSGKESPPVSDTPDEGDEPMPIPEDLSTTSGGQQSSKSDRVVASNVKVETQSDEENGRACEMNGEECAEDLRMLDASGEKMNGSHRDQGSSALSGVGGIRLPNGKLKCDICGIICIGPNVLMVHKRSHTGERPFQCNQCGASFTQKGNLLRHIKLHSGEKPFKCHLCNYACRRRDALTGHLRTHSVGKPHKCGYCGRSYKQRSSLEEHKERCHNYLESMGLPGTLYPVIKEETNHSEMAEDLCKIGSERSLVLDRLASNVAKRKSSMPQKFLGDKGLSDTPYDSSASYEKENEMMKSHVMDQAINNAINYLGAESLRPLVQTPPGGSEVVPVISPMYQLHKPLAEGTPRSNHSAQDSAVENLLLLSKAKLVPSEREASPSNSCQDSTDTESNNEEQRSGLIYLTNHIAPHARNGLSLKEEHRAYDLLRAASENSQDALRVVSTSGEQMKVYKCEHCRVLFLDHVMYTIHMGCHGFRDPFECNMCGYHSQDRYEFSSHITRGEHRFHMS
IKZF1 protein, sequence (Q96SW2 whole entry): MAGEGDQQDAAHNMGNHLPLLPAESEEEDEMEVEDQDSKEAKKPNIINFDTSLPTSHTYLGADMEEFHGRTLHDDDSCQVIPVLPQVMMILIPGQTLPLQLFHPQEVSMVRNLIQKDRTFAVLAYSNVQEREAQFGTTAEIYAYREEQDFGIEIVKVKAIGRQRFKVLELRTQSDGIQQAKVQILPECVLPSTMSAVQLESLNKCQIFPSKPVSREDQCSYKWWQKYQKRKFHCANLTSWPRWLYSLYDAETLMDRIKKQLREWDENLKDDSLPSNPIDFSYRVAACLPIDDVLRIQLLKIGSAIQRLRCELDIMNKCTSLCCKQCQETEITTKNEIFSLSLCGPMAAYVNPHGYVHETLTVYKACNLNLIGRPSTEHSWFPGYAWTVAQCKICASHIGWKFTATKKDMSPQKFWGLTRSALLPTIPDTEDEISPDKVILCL
IKZF1 protein, sequence (Q16531 whole entry partner): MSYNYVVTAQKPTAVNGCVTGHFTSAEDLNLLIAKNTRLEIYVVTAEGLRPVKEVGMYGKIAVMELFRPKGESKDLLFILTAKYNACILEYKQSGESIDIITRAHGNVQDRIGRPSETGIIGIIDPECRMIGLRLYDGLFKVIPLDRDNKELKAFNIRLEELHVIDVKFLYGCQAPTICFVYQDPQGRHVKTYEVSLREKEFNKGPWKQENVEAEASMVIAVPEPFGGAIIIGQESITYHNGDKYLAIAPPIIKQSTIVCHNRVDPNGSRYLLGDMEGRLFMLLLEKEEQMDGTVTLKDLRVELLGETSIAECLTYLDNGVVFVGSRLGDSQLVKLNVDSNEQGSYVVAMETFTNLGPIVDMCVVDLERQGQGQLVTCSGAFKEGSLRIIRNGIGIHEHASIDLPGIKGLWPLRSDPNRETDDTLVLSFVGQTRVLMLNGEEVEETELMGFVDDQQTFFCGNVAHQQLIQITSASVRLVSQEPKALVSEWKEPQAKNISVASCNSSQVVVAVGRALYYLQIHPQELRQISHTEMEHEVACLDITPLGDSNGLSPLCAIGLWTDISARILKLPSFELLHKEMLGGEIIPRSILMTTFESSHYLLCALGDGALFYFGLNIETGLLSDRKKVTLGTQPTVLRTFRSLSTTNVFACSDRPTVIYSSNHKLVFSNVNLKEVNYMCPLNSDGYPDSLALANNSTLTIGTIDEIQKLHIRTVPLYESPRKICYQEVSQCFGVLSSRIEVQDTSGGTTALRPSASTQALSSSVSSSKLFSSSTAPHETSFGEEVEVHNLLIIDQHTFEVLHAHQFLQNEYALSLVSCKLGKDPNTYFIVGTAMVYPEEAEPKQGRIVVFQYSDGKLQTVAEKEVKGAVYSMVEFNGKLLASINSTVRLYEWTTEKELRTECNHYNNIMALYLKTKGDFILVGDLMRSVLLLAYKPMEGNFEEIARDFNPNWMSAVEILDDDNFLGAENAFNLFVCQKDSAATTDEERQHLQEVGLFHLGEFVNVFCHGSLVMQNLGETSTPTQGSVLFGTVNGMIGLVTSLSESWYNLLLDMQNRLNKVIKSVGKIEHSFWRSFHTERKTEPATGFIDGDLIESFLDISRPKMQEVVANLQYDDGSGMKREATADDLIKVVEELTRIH

GSPT1 protein = GSPT1 protein (Homo sapiens (Human), UniProt P15170+Q96SW2); experiment: Western-blot assay of substrate protein degradation in hPBMC, GSPT1; assay type: cell-based; details: for residual substrate protein level, GSPT1: hPBMC cells, compound 500 nM, 24 hours, Western blot
GSPT1 protein, sequence (P15170 whole entry): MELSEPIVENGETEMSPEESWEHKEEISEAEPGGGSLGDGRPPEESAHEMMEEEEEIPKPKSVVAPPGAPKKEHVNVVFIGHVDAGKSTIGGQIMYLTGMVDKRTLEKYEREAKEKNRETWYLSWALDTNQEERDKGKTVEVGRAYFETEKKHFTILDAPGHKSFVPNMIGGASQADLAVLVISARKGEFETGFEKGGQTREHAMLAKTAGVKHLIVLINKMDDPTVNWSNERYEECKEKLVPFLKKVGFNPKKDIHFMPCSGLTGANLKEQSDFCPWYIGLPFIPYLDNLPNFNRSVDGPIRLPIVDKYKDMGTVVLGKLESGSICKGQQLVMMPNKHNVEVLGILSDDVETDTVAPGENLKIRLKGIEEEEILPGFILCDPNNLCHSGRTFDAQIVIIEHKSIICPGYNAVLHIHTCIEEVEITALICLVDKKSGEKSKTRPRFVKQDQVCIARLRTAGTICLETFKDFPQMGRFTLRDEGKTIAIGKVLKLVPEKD
GSPT1 protein, sequence (Q96SW2 whole entry): as the sequence (Q96SW2 whole entry) above
GSPT1 protein, sequence (Q16531 whole entry partner): as the sequence (Q16531 whole entry partner) above

IKZF3 protein = IKZF3 protein (Homo sapiens (Human), UniProt Q96SW2+Q9UKT9); experiment: Western-blot assay of substrate protein degradation in hPBMC, IKZF3; assay type: cell-based; details: for residual substrate protein level, IKZF3: hPBMC cells, compound 500 nM, 24 hours, Western blot
IKZF3 protein, sequence (Q9UKT9 whole entry): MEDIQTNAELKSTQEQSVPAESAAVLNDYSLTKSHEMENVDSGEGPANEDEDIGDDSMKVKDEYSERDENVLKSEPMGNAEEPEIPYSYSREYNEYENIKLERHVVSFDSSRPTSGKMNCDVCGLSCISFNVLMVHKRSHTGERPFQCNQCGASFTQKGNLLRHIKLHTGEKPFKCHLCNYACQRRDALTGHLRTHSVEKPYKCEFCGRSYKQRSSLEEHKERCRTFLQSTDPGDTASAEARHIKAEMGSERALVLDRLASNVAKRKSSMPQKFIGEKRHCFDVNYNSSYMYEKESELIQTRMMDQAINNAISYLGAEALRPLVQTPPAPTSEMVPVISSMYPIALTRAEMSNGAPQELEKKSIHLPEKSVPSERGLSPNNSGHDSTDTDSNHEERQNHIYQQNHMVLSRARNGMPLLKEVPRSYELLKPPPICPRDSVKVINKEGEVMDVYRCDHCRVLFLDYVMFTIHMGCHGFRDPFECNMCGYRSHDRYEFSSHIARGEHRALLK
IKZF3 protein, sequence (Q96SW2 whole entry): as the sequence (Q96SW2 whole entry) above
IKZF3 protein, sequence (Q16531 whole entry partner): as the sequence (Q16531 whole entry partner) above

[2] = hPBMC, 24 h, serially diluted 0.03-1000 nM

human Cereblon WT GST-tagged protein, sequence (Q96SW2 whole entry): as the sequence (Q96SW2 whole entry) above

IC50 [1] [nM]	IC50 (MM.1S cells) [nM]	IC50 (Mino cells) [nM]	concentration at which significant degradation effects on IKZF1 protein are exhibited (FIG. 1) (IKZF1 protein; [2]) [nM]	concentration at which significant degradation effects on GSPT1 protein are exhibited (FIG. 1) (GSPT1 protein; [2]) [nM]	concentration at which significant degradation effects on IKZF3 protein are exhibited (FIG. 1) (IKZF3 protein; [2]) [nM]	SMILES	residual substrate protein level, IKZF1 (IKZF1 protein)	residual substrate protein level, GSPT1 (GSPT1 protein)	residual substrate protein level, IKZF3 (IKZF3 protein)
230	100 to 500	100 to 500	–	–	–	O=C1CCC(N2Cc3cc(CN4CCN(C(=O)c5ccccc5-c5ccc(Cl)cc5)CC4)ccc3C2=O)C(=O)N1 (centres unmarked) [GT-03891, 3-(5-((4-(4′-chloro-[1,1′-biphenyl]-2-carbonyl)piperazin-1-yl)methyl)-1-oxoisoindolin-2-yl)piperidine-2,6-dione]	–	–	–
590	100 to 500	–	–	–	–	CC1(C)CCC(CN2CCCN(Cc3ccc4c(c3)CN(C3CCC(=O)NC3=O)C4=O)CC2)=C(c2ccc(Cl)cc2)C1 (centres unmarked) [GT-05396, 3-(5-((4-((4′-chloro-5,5-dimethyl-3,4,5,6-tetrahydro-[1,1′-biphenyl]-2-yl)methyl)-1,4-diazepan-1-yl)methyl)-1-oxoisoindolin-2-yl)piperidine-2,6-dione]	B (B represents a residual substrate protein level of >50%)	A (A represents a residual substrate protein level of <50%)	A (A represents a residual substrate protein level of <50%)
550	5 to 10	–	–	–	–	CC1(C)CCC(C(=O)N2CC3CC2CN3Cc2ccc3c(c2)CN(C2CCC(=O)NC2=O)C3=O)=C(c2ccc(F)cc2)C1 (centres unmarked) [GT-05403, 3-(5-((5-(4′-fluoro-5,5-dimethyl-3,4,5,6-tetrahydro-[1,1′-biphenyl]-2-carbonyl)-2,5-diazabicyclo[2.2.1]heptan-2-yl)methyl)-1-oxoisoindolin-2-yl)piperidine-2,6-dione]	–	–	–
840	100 to 500	5 to 10	–	–	–	O=C1CCC(N2Cc3cc(CN4CCN(Cc5cnc(-c6ccccc6)cn5)CC4)ccc3C2=O)C(=O)N1 (centres unmarked) [GT-05544, 3-(1-oxo-5-((4-((5-phenylpyrazin-2-yl)methyl)piperazin-1-yl)methyl)isoindolin-2-yl)piperidine-2,6-dione]	A (A represents a residual substrate protein level of <50%)	B (B represents a residual substrate protein level of >50%)	A (A represents a residual substrate protein level of <50%)
1670	500 to 1000	100 to 500	–	–	–	O=C1CCC(N2C(=O)c3ccc(CN4CCN(Cc5ccc(-c6ccc(Cl)cc6)cc5)CC4)cc3C2=O)C(=O)N1 (centres unmarked) [GT-05599, 5-((4-((4′-chloro-[1,1′-biphenyl]-4-yl)methyl)piperazin-1-yl)methyl)-2-(2,6-dioxopiperidin-3-yl)isoindoline-1,3-dione]	A (A represents a residual substrate protein level of <50%)	B (B represents a residual substrate protein level of >50%)	A (A represents a residual substrate protein level of <50%)
390	100 to 500	10 to 50	< 3	< 3	< 3	O=C1CCC(N2Cc3cc(CN4CCN(Cc5ccc(-c6cccs6)cc5)CC4)ccc3C2=O)C(=O)N1 (centres unmarked) [GT-05640, 3-(1-oxo-5-((4-(4-(thiophen-2-yl)benzyl)piperazin-1-yl)methyl)isoindolin-2-yl)piperidine-2,6-dione]	A (A represents a residual substrate protein level of <50%)	B (B represents a residual substrate protein level of >50%)	A (A represents a residual substrate protein level of <50%)
680	100 to 500	100 to 500	–	–	–	O=C1CCC(N2Cc3c(ccc(CN4CCN(C(=O)c5ccccc5-c5ccc(Cl)cc5)CC4)c3F)C2=O)C(=O)N1 (centres unmarked) [GT-05649, 3-(5-((4-(4′-chloro-[1,1′-biphenyl]-2-carbonyl)piperazin-1-yl)methyl)-4-fluoro-1-oxoisoindolin-2-yl)piperidine-2,6-dione]	B (B represents a residual substrate protein level of >50%)	B (B represents a residual substrate protein level of >50%)	A (A represents a residual substrate protein level of <50%)
700	100 to 500	–	–	–	–	CC1(C)CCC(C(=O)N2CCC3(CC2)CN(Cc2ccc4c(c2)CN(C2CCC(=O)NC2=O)C4=O)C3)=C(c2ccc(Cl)cc2)C1 (centres unmarked) [GT-05656, 3-(5-((7-(4′-chloro-5,5-dimethyl-3,4,5,6-tetrahydro-[1,1′-biphenyl]-2-carbonyl)-2,7-diazaspiro[3.5]nonan-2-yl)methyl)-1-oxoisoindolin-2-yl)piperidine-2,6-dione]	B (B represents a residual substrate protein level of >50%)	B (B represents a residual substrate protein level of >50%)	A (A represents a residual substrate protein level of <50%)
1230	50 to 100	–	–	–	–	CC1(C)CCC(CN2CCC3(CC2)CN(Cc2ccc4c(c2)CN(C2CCC(=O)NC2=O)C4=O)C3)=C(c2ccc(Cl)cc2)C1 (centres unmarked) [GT-05677, 3-(5-((7-((4′-chloro-5,5-dimethyl-3,4,5,6-tetrahydro-[1,1′-biphenyl]-2-yl)methyl)-2,7-diazaspiro[3.5]nonan-2-yl)methyl)-1-oxoisoindolin-2-yl)piperidine-2,6-dione]	A (A represents a residual substrate protein level of <50%)	B (B represents a residual substrate protein level of >50%)	A (A represents a residual substrate protein level of <50%)
110	–	100 to 500	–	–	–	O=C1CCC(N2Cc3cc(CN4CCN(Cc5ccc(-c6ccc[nH]6)cc5)CC4)ccc3C2=O)C(=O)N1 (centres unmarked) [GT-05734, 3-(5-((4-(4-(1H-pyrrol-2-yl)benzyl)piperazin-1-yl)methyl)-1-oxoisoindolin-2-yl)piperidine-2,6-dione]	B (B represents a residual substrate protein level of >50%)	B (B represents a residual substrate protein level of >50%)	A (A represents a residual substrate protein level of <50%)
–	500 to 1000	–	–	–	–	O=C1CCC(N2Cc3cc(CN4CCN(Cc5ccc(-c6ccc(Cl)cn6)cc5)CC4)ccc3C2=O)C(=O)N1 (centres unmarked) [GT-05872, 3-(5-((4-(4-(5-chloropyridin-2-yl)benzyl)piperazin-1-yl)methyl)-1-oxoisoindolin-2-yl)piperidine-2,6-dione]	A (A represents a residual substrate protein level of <50%)	B (B represents a residual substrate protein level of >50%)	B (B represents a residual substrate protein level of >50%)

SMILES	IC50 [1] [nM]	IC50 (MM.1S cells) [nM]	IC50 (Mino cells) [nM]	concentration at which significant degradation effects on IKZF1 protein are exhibited (FIG. 1) (IKZF1 protein; [2]) [nM]	concentration at which significant degradation effects on GSPT1 protein are exhibited (FIG. 1) (GSPT1 protein; [2]) [nM]	concentration at which significant degradation effects on IKZF3 protein are exhibited (FIG. 1) (IKZF3 protein; [2]) [nM]	residual substrate protein level, IKZF1 (IKZF1 protein)	residual substrate protein level, GSPT1 (GSPT1 protein)	residual substrate protein level, IKZF3 (IKZF3 protein)
O=C1CCC(N2C(=O)c3ccc(N4C5CCC4CN(Cc4ccccc4-c4ccc(Cl)cc4)C5)cc3C2=O)C(=O)N1 (centres unmarked) [GT-05370, 5-(3-((4′-chloro-[1,1′-biphenyl]-2-yl)methyl)-3,8-diazabicyclo[3.2.1]octan-8-yl)-2-(2,6-dioxopiperidin-3-yl)isoindoline-1,3-dione]	–	< 5	–	–	–	–	B (B represents a residual substrate protein level of >50%)	A (A represents a residual substrate protein level of <50%)	A (A represents a residual substrate protein level of <50%)
CC1(C)CCC(CN2CC3CC(C2)N3Cc2cc(F)c3c(c2)CN(C2CCC(=O)NC2=O)C3=O)=C(c2ccc(Cl)cc2)C1 (centres unmarked) [GT-05383, 3-(5-((3-((4′-chloro-5,5-dimethyl-3,4,5,6-tetrahydro-[1,1′-biphenyl]-2-yl)methyl)-3,6-diazabicyclo[3.1.1]heptan-6-yl)methyl)-7-fluoro-1-oxoisoindolin-2-yl)piperidine-2,6-dione]	540	500 to 1000	–	–	–	–	B (B represents a residual substrate protein level of >50%)	A (A represents a residual substrate protein level of <50%)	B (B represents a residual substrate protein level of >50%)
CC1(C)CCC(CN2C3CC2CN(Cc2ccc4c(c2F)CN(C2CCC(=O)NC2=O)C4=O)C3)=C(c2ccc(Cl)cc2)C1 (centres unmarked) [GT-05529, 3-(5-((6-((4′-chloro-5,5-dimethyl-3,4,5,6-tetrahydro-[1,1′-biphenyl]-2-yl)methyl)-3,6-diazabicyclo[3.1.1]heptan-3-yl)methyl)-4-fluoro-1-oxoisoindolin-2-yl)piperidine-2,6-dione]	350	100 to 500	500 to 1000	–	–	–	A (A represents a residual substrate protein level of <50%)	B (B represents a residual substrate protein level of >50%)	A (A represents a residual substrate protein level of <50%)
O=C1CCC(N2Cc3cc(CN4C5CCC4CN(C(=O)c4ccccc4-c4ccc(Cl)cc4)C5)ccc3C2=O)C(=O)N1 (centres unmarked) [GT-05788, 3-(5-((3-(4′-chloro-[1,1′-biphenyl]-2-carbonyl)-3,8-diazabicyclo[3.2.1]octan-8-yl)methyl)-1-oxoisoindolin-2-yl)piperidine-2,6-dione]	500	50 to 100	100 to 500	–	–	–	–	–	–
